From PMC7763995 (Molecules, 2020)

Legend:
[1] = molecular target: T1, Equine serum BChE (Equus caballus, UniProt P81908); experiment: biochemical
T1 construct: equine serum BChE; purchased Sigma-Aldrich; host or cells: equine serum
Experimental: (§1) Measurements were performed with a FLUOStar Optima microplate reader (BMG Labtech, Ortenberg, Germany). Compounds were dissolved in DMSO, the incubation mixture contained 2% solvent.

[2] = molecular target: T2, Human erythrocyte AChE (Homo sapiens, UniProt P22303); experiment: biochemical; details: mean ± SEM, n = 3; n.a. = not active; read-out: Human Erythrocyte AChE, IC50
T2 construct: AChE from human erythrocytes was used; purchased Sigma-Aldrich; host or cells: human erythrocytes
T2 sequence (P22303 32-617 isoform P22303-2 limits assumed): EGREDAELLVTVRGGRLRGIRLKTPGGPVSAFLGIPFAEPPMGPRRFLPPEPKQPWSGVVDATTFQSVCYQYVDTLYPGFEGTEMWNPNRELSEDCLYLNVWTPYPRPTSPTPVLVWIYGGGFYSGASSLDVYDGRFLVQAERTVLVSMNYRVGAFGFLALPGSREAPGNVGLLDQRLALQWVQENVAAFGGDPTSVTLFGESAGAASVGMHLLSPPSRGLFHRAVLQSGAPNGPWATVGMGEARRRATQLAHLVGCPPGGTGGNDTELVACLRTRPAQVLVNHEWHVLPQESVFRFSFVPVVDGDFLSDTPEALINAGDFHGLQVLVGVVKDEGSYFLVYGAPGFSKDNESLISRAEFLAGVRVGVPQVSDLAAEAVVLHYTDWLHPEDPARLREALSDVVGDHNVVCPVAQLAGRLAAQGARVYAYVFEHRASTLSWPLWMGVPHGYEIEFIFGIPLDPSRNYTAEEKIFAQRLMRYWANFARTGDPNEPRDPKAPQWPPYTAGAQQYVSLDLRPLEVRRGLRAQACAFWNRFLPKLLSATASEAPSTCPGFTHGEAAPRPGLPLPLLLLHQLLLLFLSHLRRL
Experimental: as §1

[3] = molecular target: T3, EeAChE PAS (Electrophorus electricus, UniProt O42275); type: binding; details: compound concentration 20 µM
T3 construct: Electric eel AChE (EeAChE, type VI-S, lyophilized powder); purchased Sigma-Aldrich type VI-S; host or cells: electric eel
T3 sequence (O42275 24-633): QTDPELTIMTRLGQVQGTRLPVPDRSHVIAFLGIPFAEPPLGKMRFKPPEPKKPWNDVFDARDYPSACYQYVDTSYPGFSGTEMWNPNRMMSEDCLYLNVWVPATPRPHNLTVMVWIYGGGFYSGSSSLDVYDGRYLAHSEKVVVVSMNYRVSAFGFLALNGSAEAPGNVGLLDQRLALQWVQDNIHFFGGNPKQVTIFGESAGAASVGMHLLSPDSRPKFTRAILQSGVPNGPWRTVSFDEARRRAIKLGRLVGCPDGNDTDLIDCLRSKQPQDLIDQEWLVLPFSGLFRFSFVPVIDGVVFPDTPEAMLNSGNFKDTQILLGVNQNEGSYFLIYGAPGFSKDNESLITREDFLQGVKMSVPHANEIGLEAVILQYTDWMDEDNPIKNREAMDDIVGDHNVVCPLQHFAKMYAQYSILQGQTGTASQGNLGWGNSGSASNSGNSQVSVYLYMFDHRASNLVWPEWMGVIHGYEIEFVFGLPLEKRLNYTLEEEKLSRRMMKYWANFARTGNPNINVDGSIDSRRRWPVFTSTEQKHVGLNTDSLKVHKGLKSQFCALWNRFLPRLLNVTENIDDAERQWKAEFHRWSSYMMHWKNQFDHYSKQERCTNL
Experimental: Electric eel AChE (EeAChE, type VI-S, lyophilized powder, Sigma-Aldrich, Saint Louis, MO, USA) was used owing to its high degree of purification, high activity, and lower cost compared to human AChE.
The blank contained propidium iodide of the same concentration in 1 mM Tris-HCl buffer pH 8.0. The measurements were carried out in triplicate on a FLUOStar Optima microplate reader, and the results were calculated by formula (1):% Displacement = 100 − (IFAChE+ Propidium + inhibitor / IFAChE + Propidium) × 100(1) where IFAChE + Propidium is the fluorescence intensity of the propidium associated with AChE in the absence of the test compound (taken as 100%), and IFAChE + Propidium + inhibitor is the fluorescence intensity of the propidium associated with AChE in the presence of the test compound.

[4] = molecular target: T1, Equine serum BChE; experiment: Kinetic study of BChE inhibition, steady-state inhibition constants; type: biochemical
Experimental: Mechanisms of human erythrocyte AChE and equine serum BChE inhibition were assessed via a thorough analysis of enzyme kinetics. Residual activity was measured following 5 min incubation at 25°C (for temperature equilibration) with three increasing concentrations of inhibitor and six decreasing substrate concentrations. Substrate was added immediately after the 5 min incubation with inhibitor and the rates of absorption were monitored at 412 nm using a FLUOStar OPTIMA microplate reader.

[5] = ABTS radical cation scavenging activity assay; details: 1 h incubation
Experimental: Radical scavenging activity of the compounds was assessed using the ABTS radical decolorization assay with some modifications. ABTS was purchased from Tokyo Chemical Industry Co., Ltd. (Tokyo, Japan), potassium persulfate (dipotassium peroxodisulfate), Trolox (6-hydroxy-2,5,7,8-tetramethychroman-2-carboxylic acid), and HPLC-grade ethanol were obtained from Sigma-Aldrich. Aqueous solutions were prepared using deionized water.
The solution of cation radical ABTS^•+ was produced by incubation of ABTS with potassium persulfate in deionized water for 12–16 h at room temperature in the dark. Radical scavenging capacity of the compounds was analyzed by mixing 10 μL of compound with 240 μL of ABTS^•+ working solution in ethanol (100 μM final concentration). The reaction was monitored for an hour with an interval of 5–10 min. Data are given for 1 h of incubation of compounds with ABTS^•+. The reduction in absorbance was measured spectrophotometrically at 734 nm using a xMark microplate UV/VIS microplate spectrophotometer (Bio-Rad, Hercules, CA, USA).
Ethanol blanks were run in each assay. Values were obtained from three replicates of each sample and three independent experiments. Standard antioxidants Trolox and BHT were used as reference compounds.
Antioxidant capacity as Trolox equivalent (TEAC) values was determined as the ratio between the slopes obtained from the linear correlation of the ABTS radical absorbance with the concentrations of tested compounds and Trolox. […] The compounds were tested in the concentration range of 0.1–100 µM.

[6] = tested on: mouse brain homogenate; experiment: TBARS assay, spontaneous lipid peroxidation in mouse brain homogenate; details: read-out: Inhibition of Spontaneous Lipid Peroxidation in Mice Brain Homogenate, TBARS Assay, IC50
Experimental: The work was carried out in accordance with the EU Directive 2010/63/EU. Hybrid BDF1 mice (about 6 months old) were sacrificed by decapitation. Each brain was rapidly excised, frozen in liquid nitrogen, and stored at −80°C until use. The brains were thawed and homogenized using a Wisd WiseTis HG-15D homogenizer for 2 min in a buffer (0.01 M PBS, pH 7.4 or 0.1 M Tris-HCl, pH 7.4). Protein concentrations were determined by the Lowry method.
The procedure was performed in accordance with the method of Ohkawa et al. with minor modifications. Briefly, mouse brain homogenate (protein concentration 1 mg/mL) in PBS (0.1 M, pH 7.4) was incubated for 30 min at 37°C with tested conjugates, and the reaction was terminated by addition of 0.4 mL of 17% (w/v) trichloroacetic acid (Sigma-Aldrich). Following centrifugation for 20 min at 1300× g, 0.5 mL of 0.8% (w/v) of TBA (Sigma-Aldrich) was added to 1 mL of supernatant, heated for 30 min at 95°C and then cooled to RT. The optical density of the TBARS, which corresponds to the produced MDA, was measured at 532 nm against a blank using an Agilent Cary 60 UV-Vis spectrophotometer (Agilent, Santa Clara, CA, USA). The MDA concentration was calculated using an extinction coefficient of 1.56 × 10^5 M^−1cm^−1. Trolox and BHT were used as reference antioxidants. Compounds were dissolved in DMSO (Sigma-Aldrich) and tested in a concentration range 0.01–100 μM. All compounds were examined at least in triplicate.

T1 sequence (P81908 whole entry): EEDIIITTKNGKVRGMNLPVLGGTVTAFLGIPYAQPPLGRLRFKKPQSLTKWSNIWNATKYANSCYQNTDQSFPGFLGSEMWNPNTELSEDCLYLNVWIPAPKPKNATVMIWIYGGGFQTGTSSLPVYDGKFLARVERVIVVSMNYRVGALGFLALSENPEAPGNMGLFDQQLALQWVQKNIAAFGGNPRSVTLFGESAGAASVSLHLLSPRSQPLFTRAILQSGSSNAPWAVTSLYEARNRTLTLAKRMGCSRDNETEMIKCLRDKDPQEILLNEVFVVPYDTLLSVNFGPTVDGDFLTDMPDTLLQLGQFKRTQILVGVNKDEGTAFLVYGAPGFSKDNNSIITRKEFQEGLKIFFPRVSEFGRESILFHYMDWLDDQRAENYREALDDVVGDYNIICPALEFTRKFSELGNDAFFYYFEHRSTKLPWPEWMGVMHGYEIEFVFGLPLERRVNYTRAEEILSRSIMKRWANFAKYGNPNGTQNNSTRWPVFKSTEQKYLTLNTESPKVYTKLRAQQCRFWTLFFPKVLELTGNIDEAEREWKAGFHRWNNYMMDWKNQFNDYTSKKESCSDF

## CC(C)(C)c1cc(C=NCCNc2c3c(nc4ccccc24)CCCCC3)cc(C(C)(C)C)c1O [Compound 7c, 2,6-Di-tert-butyl-4-{[2-(7,8,9,10-tetrahydro-6H-cyclohepta[b]quinolin-11-ylamino)-ethylimino]-methyl}-phenol]
[1]; IC50 AChE / IC50 BChE
  Selectivity for BChE: 9.6
[1]; mean ± SEM, n = 3, n.a. = not active, read-out: Equine Serum BChE, IC50
  IC50: 0.419 ± 0.04 µM
[2]
  IC50: 4.03 ± 0.03 µM
[3]
  Displacement of Propidium from EeAChE PAS (%): 16.3 ± 1.3%
[4]; Lineweaver-Burk plots
  αKi (noncompetitive component), BChE: 0.437 ± 0.010 µM
[4]; Lineweaver-Burk plots, read-out: Ki (competitive component), BChE
  Ki: 0.164 ± 0.005 µM
[4]; changes in both Km and Vmax
  Mechanism of BChE inhibition: mixed type of reversible inhibition
[5]
  IC50: 17.8 ± 1.6 µM
[5]; ratio of slopes test compound/Trolox
  ABTS^•+-Scavenging Activity, TEAC: 1.11 ± 0.04
[6]
  IC50: 10.4 ± 0.7 µM
